Assay results from paper PMC8620242 (Journal of Advanced Research, 2021).

Target: nsp12 (Severe acute respiratory syndrome coronavirus 2, UniProt P0DTD1)
Assay: SPR binding to nsp12
Parameters: species or system SARS-CoV-2

## CC1(C)[C@@H](O)CC[C@]2(C)[C@H]3C(=O)C=C4[C@@H]5C[C@@](C)(C(=O)O)CC[C@]5(C)CC[C@@]4(C)[C@]3(C)CC[C@@H]12 [GA, glycyrrhetinic acid]
  Kd: 416 µM
